Reference: US11932611B1, “3-(5-(3-fluorophenyl)-4-phenyl-4H-1,2,4-triazol-3-ylthio)propanoic acid as an antimicrobial compound” (KING FAISAL UNIVERSITY, priority 2023, dated 2024)

Legend:
Assay type in all cases: cell-based
[1] = test system: Chrysosporium keratinophilum; assay: Agar plate disc-diffusion method, antifungal inhibition zone; settings: Sabouraud's dextrose agar, 72 h
Procedure: (§1) The agar plate disc-diffusion method was applied. […] The discs were then placed onto the surface of agar plates (nutrient agar for bacteria and Sabouraud's dextrose agar for fungi) seeded with the test organism. Each plate contained 15 mL of the agar medium, previously seeded with 0.2 mL of the broth culture of each organism pregrown for 18 h. The plates were incubated at 37° C. for 48 h, and 72 h for fungi. The inhibition zones was measured in mm. Discs impregnated with DMSO were used as a control, and its inhibition zone was subtracted from the tested compound actual inhibition zone.

[2] = test system: Aspergillus flavus; assay: as above; settings: Sabouraud's dextrose agar, 72 h
Procedure: as §1

[3] = test system: Escherichia coli; assay: Agar plate disc-diffusion method, antibacterial inhibition zone; settings: nutrient agar, 37° C., 48 h
Procedure: as §1

[4] = test system: Pseudomonas aeruginosa; assay: as above; settings: nutrient agar, 37° C., 48 h
Procedure: as §1

[5] = test system: Staphylococcus aureus; assay: as above; settings: nutrient agar, 37° C., 48 h
Procedure: as §1

[6] = test system: Bacillus cereus; assay: as above; settings: nutrient agar, 37° C., 48 h
Procedure: as §1

[7] = A = concentration of comp. = 10,000 μL
[8] = B = concentration of comp. = 30,000 μL
[9] = C = concentration of comp. = 50,000 μL

SMILES: O=C(O)CCSc1nnc(-c2cccc(F)c2)n1-c1ccccc1 [III, 3-(5-(3-fluorophenyl)-4-phenyl-4H-1,2,4-triazol-3-ylthio)propanoic acid]
- inhibition zone, Chrysosporium keratinophilum, A [1, 7]: 23 mm
- inhibition zone, Chrysosporium keratinophilum, B [1, 8]: 26 mm
- inhibition zone, Chrysosporium keratinophilum, C [1, 9]: 43 mm
- inhibition zone, Aspergillus flavus, A [2, 7]: 19 mm
- inhibition zone, Aspergillus flavus, B [2, 8]: 25 mm
- inhibition zone, Aspergillus flavus, C [2, 9]: 36 mm
- inhibition zone, Escherichia coli, A [3, 7]: 25 mm
- inhibition zone, Escherichia coli, B [3, 8]: 31 mm
- inhibition zone, Escherichia coli, C [3, 9]: 45 mm
- inhibition zone, Pseudomonas aeruginosa, A [4, 7]: 22 mm
- inhibition zone, Pseudomonas aeruginosa, B [4, 8]: 24 mm
- inhibition zone, Pseudomonas aeruginosa, C [4, 9]: 41 mm
- inhibition zone, Staphylococcus aureus, A [5, 7]: 27 mm
- inhibition zone, Staphylococcus aureus, B [5, 8]: 34 mm
- inhibition zone, Staphylococcus aureus, C [5, 9]: 45 mm
- inhibition zone, Bacillus Cereus, A [6, 7]: 24 mm
- inhibition zone, Bacillus Cereus, B [6, 8]: 27 mm
- inhibition zone, Bacillus Cereus, C [6, 9]: 38 mm
